SMILES strings stand for the structures. Counter-ions that a name gives are not always drawn.

For assay [1], the system named is M. tuberculosis H37Rv. Put plainly: MIC determination by microbroth dilution, anti-tuberculosis activity. Type of assay: cell-based, Mycobacterium tuberculosis. To be noted: Mycobacterium tuberculosis, H37RV, 168 h; read-out: MIC.
The test system of assay [2] is S. aureus 8325 or strain ATCC 29213. The experiment in a line: MIC determination by microbroth dilution. Format: cell-based, Staphylococcus aureus. To be noted: Staphylococcus aureus, ATCC29213; S. aureus 8325 or strain ATCC 29213 (for 1471-1544).
Assay [3] deals with Strep. pyogenes ATCC 700294. The experiment in a line: MIC determination by microbroth dilution. Format: cell-based, Streptococcus pyogenes. As to conditions: Streptococcus pyogenes, ATCC700294, read-out: MIC S. pyogenes.
In assay [4] the test system is Strep. pneumoniae DAW27 or strain R6. The experiment in a line: MIC determination by microbroth dilution. As to conditions: Streptococcus pneumoniae; Strep. pneumoniae DAW27 or strain R6 (for 1443-1544); read-out: MIC S. pneumoniae. Type of assay: cell-based, Streptococcus pneumoniae.
Assay [5] concerns E. faecalis ATCC 33186. The experiment in a line: MIC determination by microbroth dilution. Format: cell-based, Enterococcus faecalis. To be noted: Enterococcus faecalis, ATCC33186.
Assay [6] deals with B. anthracis Sterne 34F2. The experiment in a line: microbe, parasite or virus in culture. Format: cell-based, Bacillus anthracis. To be noted: Bacillus anthracis, STERNE34F2, read-out: MIC B. anthracis 34F2.
Assay [7] deals with Burkholderia cepacia ATCC 25416. The experiment in a line: MIC determination by microbroth dilution. Type of assay: cell-based. To be noted: ATCC25416, read-out: MIC B. cepcia.
Assay [8] relates to Proteus mirabilis ATCC 25933. Put plainly: MIC determination by microbroth dilution. Format: cell-based. As to conditions: ATCC25933.
The subject of assay [9] is Proteus vulgaris ATCC 33420. The experiment in a line: MIC determination by microbroth dilution. Type of assay: cell-based. As to conditions: ATCC33420.
Assay [10] has as its system Klebsiella pneumoniae ATCC 33495. The experiment in a line: MIC determination by microbroth dilution. Type of assay: cell-based. As to conditions: ATCC33495.
Assay [11] has as its system Acinetobacter baumannii ATCC 19606. Put plainly: MIC determination by microbroth dilution. Format: cell-based. To be noted: ATCC19606.
Assay [12] relates to P. aeruginosa PAO1. The experiment in a line: MIC determination by microbroth dilution. As to conditions: Pseudomonas aeruginosa. Type of assay: cell-based, Pseudomonas aeruginosa.
The test system of assay [13] is Strenotrophomonas maltophilia ATCC 13637. Put plainly: MIC determination by microbroth dilution. Type of assay: cell-based.
Assay [14] deals with E. coli K12. Put plainly: MIC determination by microbroth dilution. Format: cell-based, Escherichia coli. As to conditions: Escherichia coli, K12.
In assay [15] the test system is E. coli K12 ΔtolC. The experiment in a line: microbe, parasite or virus in culture. Format: cell-based. To be noted: Escherichia coli, read-out: MIC E. coli K12 ΔtolC.

Consider `CN[C@@H]1[C@H](O)[C@H](NC)C2O[C@]3(O)C(OC2[C@H]1O)O[C@H](C)C[C@H]3NC(=O)c1ccccc1F` (stereo partly drawn) [Compound 1492, 3′-Dihydro-3′-deoxy-4(R)-(2-fluorobenzene-1-yl)carboxylicamino spectinomycin dihydrochloride], for which the MIC in assay [1] is greater than 200 µg/mL; in assay [2], greater than 200 µg/mL; in assay [3], 50 µg/mL; in [4] it was 100 µg/mL; in assay [5] it was greater than 200 µg/mL; in [6], greater than 200 µg/mL. In addition, the MIC in assay [7], in [8], in assay [9], in assay [10], in assay [11] and in [12] was greater than 200 µg/mL throughout. In addition, the MIC in assay [13] is greater than 200 µg/mL; in [14], greater than 200 µg/mL; in assay [15] it was 200 µg/mL.

Regarding `CN[C@@H]1[C@H](O)[C@H](NC)C2O[C@]3(O)C(OC2[C@H]1O)O[C@H](C)C[C@H]3NC(=O)[C@@H](O)CCN` (stereo partly drawn) [Compound 1493, 3′-Dihydro-3′-deoxy-4(R)-(2(S)-4-amino-2-hydroxy)butanoylamino spectinomycin trihydrochloride], the MIC in assay [1] is greater than 200 µg/mL; in assay [2] it was greater than 200 µg/mL; in assay [3] it was 50 µg/mL; in assay [4] it was 50 µg/mL; in assay [5], greater than 200 µg/mL; in [6] it was greater than 200 µg/mL. Also, the MIC in [7] was greater than 200 µg/mL; in assay [8], greater than 200 µg/mL; in [9], 100 µg/mL; in assay [10] it was greater than 200 µg/mL; in [11] it was greater than 200 µg/mL; in assay [12] it was greater than 200 µg/mL. Further, the MIC in [13] is greater than 200 µg/mL; in [14] it was 100 µg/mL; in assay [15], 25 µg/mL.

With `CN[C@@H]1[C@H](O)[C@H](NC)C2O[C@]3(O)C(OC2[C@H]1O)O[C@H](C)C[C@H]3NC(=O)[C@@H](C)N` (stereo partly drawn) [Compound 1501, 3′-Dihydro-3′-deoxy-4(R)[2(R)-amino]propanoylamino spectinomycin Trihydrochloride], the MIC in assay [1], in [2], in [3], in assay [4], in assay [5] and in assay [6] was greater than 200 µg/mL throughout. The MIC in assay [7], in assay [8], in assay [9], in assay [10], in assay [11] and in assay [12] was greater than 200 µg/mL throughout. The MIC in [13], in assay [14] and in assay [15] was greater than 200 µg/mL in each case.

For the molecule `CN[C@@H]1[C@H](O)[C@H](NC)C2O[C@]3(O)C(OC2[C@H]1O)O[C@H](C)C[C@H]3NC(=O)[C@H](Cc1ccccc1)NC(=O)CN` (stereo partly drawn) [Compound 1502, 3′-Dihydro-3′-deoxy-4(R)-[2(S)-(2-aminoacetamido)-3-phenyl]-propanoylamino spectinomycin Trihydrochloride], the MIC in [1], in [2], in assay [3], in assay [4], in [5] and in assay [6] was greater than 200 µg/mL each time. In addition, the MIC in [7], in [8], in [9], in assay [10], in assay [11] and in assay [12] was greater than 200 µg/mL throughout. For the same molecule, the MIC in assay [13], in [14] and in assay [15] was greater than 200 µg/mL each time.

`CN[C@@H]1[C@H](O)[C@H](NC)C2O[C@]3(O)C(OC2[C@H]1O)O[C@H](C)C[C@H]3NC(=O)CCNC(=O)c1ccccc1` (stereo partly drawn) [Compound 1503, 3′-Dihydro-3′-deoxy-4(R)-3-benzamido propanoylamino spectino-mycin Dihydrochloride]: the MIC in assay [1], in [2], in assay [3], in [4], in assay [5] and in assay [6] was greater than 200 µg/mL in each case. Also, the MIC in [7], in assay [8], in [9], in assay [10], in assay [11] and in [12] was greater than 200 µg/mL each time. For the same molecule, the MIC in [13], in assay [14] and in assay [15] was greater than 200 µg/mL each time.

Take `CN[C@@H]1[C@H](O)[C@H](NC)C2O[C@]3(O)C(OC2[C@H]1O)O[C@H](C)C[C@H]3NC(=O)C(c1ccccc1)c1ccccc1` (stereo partly drawn) [Compound 1514, 3′-Dihydro-3′-deoxy-4(R)-(2,2-diphenyl)acetylamino spectinomycin dihydrochloride]: the MIC in [1], in [2], in assay [3], in assay [4], in assay [5] and in assay [6] was greater than 200 µg/mL in each case. For the same molecule, the MIC in assay [7], in assay [8], in assay [9], in [10], in [11] and in [12] was greater than 200 µg/mL in each case. Further, the MIC in [13], in assay [14] and in assay [15] was greater than 200 µg/mL each time.

For the molecule `CN[C@@H]1[C@H](O)[C@H](NC)C2O[C@]3(O)C(OC2[C@H]1O)O[C@H](C)C[C@H]3NC(=O)[C@@H](N)Cc1ccccc1` (stereo partly drawn) [Compound 1515, 3′-Dihydro-3′-deoxy-4(R)-[2(S)-amino,3-phenyl]propanoylamino spectinomycin Trihydrochloride], the MIC in assay [1] is 200 µg/mL; in assay [2], greater than 200 µg/mL; in assay [3], 12.5 µg/mL; in [4], 6.25 µg/mL; in [5], greater than 200 µg/mL; in [6], greater than 200 µg/mL. For the same molecule, the MIC is greater than 200 µg/mL in assay [7]; greater than 200 µg/mL in assay [8]; 100 µg/mL in assay [9]; greater than 200 µg/mL in [10]; greater than 200 µg/mL in assay [11]; greater than 200 µg/mL in assay [12]. Moreover, the values for the MIC in assay [13], in [14] and in [15] were greater than 200 µg/mL, greater than 200 µg/mL and 12.5 µg/mL, respectively.

As for `CN[C@@H]1[C@H](O)[C@H](NC)C2O[C@]3(O)C(OC2[C@H]1O)O[C@H](C)C[C@H]3NC(=O)Cc1ccc(Br)cn1` (stereo partly drawn) [Compound 1516, 3′-Dihydro-3′-deoxy-4(R)-(5-bromopyridin-2-yl)acetylamino spectinomycin trihydrobromide], the MIC in assay [1] was 1.56 µg/mL; in [2] it was 50 µg/mL; in assay [3], 6.25 µg/mL; in assay [4], 6.25 µg/mL; in [5], 100 µg/mL; in assay [6], greater than 200 µg/mL. Further, the MIC in assay [7], in [8], in assay [9], in assay [10], in assay [11] and in [12] was greater than 200 µg/mL each time. In addition, the MIC was greater than 200 µg/mL in assay [13], greater than 200 µg/mL in assay [14] and 12.5 µg/mL in assay [15].

(Values after patent US9284325B2, “Spectinamides as anti-tuberculosis agents” (UNIVERSITY OF TENNESSEE RESEARCH FOUNDATION, priority 2009, dated 2016).)
